Measured values taken from patent US7297660B2, “Alkylene carbonate adjuvants” (Huntsman Petrochemical Corporation, priority 2001, dated 2007).
Like-named read-outs stand apart in the source and are kept apart here.

Key:
[1] = tested on: velvetleaf; test: Bioefficacy testing with glyphosate, velvetleaf control; format: in vivo
Method: (§1) The adjuvancy of alkylene carbonates with glyphosate was then tested. Bioefficacy testing was conducted on lambsquarters and velvetleaf weeds. The mono-isopropylamine salt of glyphosate was applied to velvetleaf and lambsquarters weeds at 0.25 lb ae/acre, and the adjuvant mixtures were present at 0.1 v/v%. The spray volume was 20 gal/acre, and application was made at 25 psig.
(§2) Evaluations, with the same adjuvant mixtures listed above, were also made with ammonium sulfate (AMS) at 17 lb/100 gallons water carrier. For control purposes, a group of plants was not treated with any glyphosate, and another group of plants was treated with only glyphosate.
(§3) The two alkylene carbonate blends of PC and BC were compared to diethylene glycol (DEG) as a standard solvent in combination with two different nonionic surfactant systems. One surfactant system was a SURFONIC® N-95 alkyl phenol ethoxylate, and the second surfactant system was a SURFONIC® DDA-8 branched alcohol ethoxylate. (SURFONIC® brand ethoxylates are commercially available from Huntsman Petrochemical Corporation, Houston, Tex.).
(§4) The results are expressed in terms of percent control, where 0% represents no plant necrosis, and 100% represents complete plant necrosis.

[2] = tested on: lambsquarters; test: Bioefficacy testing with glyphosate, lambsquarters control; format: in vivo
Method: as §1, §2, §3, §4

[3] = cited from earlier work
[4] = tested on: skin; details: neat; cited from earlier work
[5] = tested on: guinea pigs; details: 21-day test; cited from earlier work
[6] = Hansen Solubility Parameters of JEFFSOL brand alkylene carbonates
[7] = tested on: dogs; details: 21-day test; cited from earlier work
[8] = Surface tension; format: physicochemical
[9] = criteria promulgated by the European Union; cited from earlier work
[10] = tested on: mammals; details: in vivo; cited from earlier work
[11] = tested on: activated sludge bacteria taken from a wastewater treatment plant; details: 7 day test at 300 ppm; cited from earlier work
[12] = Dipole moment; format: physicochemical; details: 40° C.
[13] = tested on: Rat Hepatocyte Primary Culture; details: Rat Hepatocyte Primary Culture/DNA Repair Test; cited from earlier work
[14] = tested on: rabbits; details: undiluted; cited from earlier work
[15] = free acid form; cited from earlier work

Compound	Hansen Sol Par, dispersive [6] [cal^1/2 cm^−3/2]	Hansen Sol Par, hydrogen bonding [6] [cal^1/2 cm^−3/2]	Hansen Sol Par, polar [6] [cal^1/2 cm^−3/2]	Hansen Sol Par, total [6] [cal^1/2 cm ^−3/2]	Surface Tension ([8]; 25° C. (* = supercooled))	Surface Tension ([8]; 40° C.) [dynes/cm]	toxicity towards mammals [10]	Dipole Moment [12] [Debyes]	also measured
N.N.O=S(=O)(O)O [AMS, ammonium sulfate]									velvetleaf necrosis, overall ([1]; FIG. 2, glyphosate with AMS 17 lb/100 gallons): dramatically increases velvetleaf necrosis; lambsquarters control, overall efficacy ([2]; FIG. 4, glyphosate with AMS 17 lb/100 gallons): does not produce the dramatic improved efficacy
CNC(=O)CSP(=S)(OC)OC [Cygon, dimethoate]									time to lose 50 percent of pest control power ([3]; mixed in water of pH 9): 48 min; time to lose 50 percent of pest control power ([3]; pH of 6): 720 min
CC1COC(=O)O1 (stereo not drawn) [PC, propylene carbonate]	9.8	2.0	8.8	13.3	40.9 dynes/cm	39.6	relatively low toxicity	4.98	skin irritation [4]: moderate skin irritation; toxicity by inhalation [5]: non-toxic; toxicity by inhalation [7]: non-toxic; biodegradability [9]: very readily biodegradable; adverse effects on activated sludge bacteria [11]: did not show adverse effects; genotoxicity [13]: negative; LD50 [14]: > 20 mL/kg
CCC1COC(=O)O1 (stereo not drawn) [BC, 1,2-butylene carbonate]	8.3	4.8	3.0	10.0	38.1 dynes/cm	37.0	relatively low toxicity	5.28	
O=C1OCCO1 [EC, ethylene carbonate]					44.0* dynes/cm	42.2		4.80	
O=C(O)CNCP(=O)(O)O [glyphosate, N-phosphonomethylglycine, reference compound]									velvetleaf control (necrosis), overall ([1]; FIG. 1, glyphosate IPA salt 0.25 lb ae/acre, adjuvant 0.1 v/v%, no AMS): very little observed necrosis; water solubility [15]: low water solubility; lambsquarters control (necrosis/kill), overall ([2]; FIG. 3, glyphosate 0.25 lb ae/acre, adjuvant 0.1 v/v%, no AMS): very little observed necrosis
